From patent US20230099803A1, “OXAZOLIDINONE FOR TREATMENT OF INFECTIONS WITH MYCOBACTERIUM TUBERCULOSIS” (priority 2017, published 2023)

Tested on: Mycobacterium tuberculosis
Type: cell-based
Conditions: 5x and 10x MIC90 of T145, 5 weeks of incubation

Question: With `CC(=O)NC[C@H]1CN(c2ccc3c(c2)Oc2ccccc2O3)C(=O)O1` [T145, N-(((S)-3-(dibenzo[b,e][1,4]dioxin-7-yl)-2-oxooxazolidin-5-yl)methyl)acetamide] as the molecule, how does the “frequency of spontaneous mutants that confer resistance” value read?
Answer: Its value is 4.0 × 10^-8.
